System: M. tuberculosis clinical isolates
Test: MIC against clinical strains (BACTEC MGIT 960 System)
Format: cell-based
Conditions: Mycobacterium tuberculosis

SMILES | MIC (strain 330, resistant clinical isolate, resistance HSR (Tables 2B, 2D)) [µM] | MIC (against 85 of the 96 clinical isolate strains tested (sensitive and resistant)) [µM]
Cl.NC[C@H]1OB2OCCOc3ccc(Cl)c1c32 [Example 4, (S)-(3-chloro-7,8-dihydro-2H-1,6,9-trioxa-9a-borabenzo[cd]azulen-2-yl)methanamine hydrochloride] | 0.08 | –
NC[C@H]1OB2OCCOc3ccc(Cl)c1c32 [Example G4-CI] | – | < 0.1

— US20180037595A1, “BENZOXABOROLE COMPOUNDS AND USES THEREOF” (GLAXOSMITHKLINE INTELLECTUAL PROPERTY (NO.2) LIMITED, priority 2015, published 2018)
